Reference: patent US7074789B2, “Kinase inhibitors” (Amgen Inc., priority 1999, dated 2006)
Where two headings read alike, the source gives them in different places.

What was measured:
Format in all cases: biochemical
Lck = target: T1, Lck (Homo sapiens, UniProt P06239); assay: Kinase inhibition assay (33P transfer), Lck
T1 construct: Kinases are expressed as either kinase domains or full length constructs; made in house
How it was run: (§1)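 Kinase domains or full-length kinases, GST- or His-tagged and expressed in E. coli or baculovirus/High Five cells, transferred 33PO4 from ATP onto plate-bound poly(Glu,Tyr) 4:1 or poly(Arg,Ser) 3:1. After incubation, plates were washed with 0.5% phosphoric acid and counted by liquid scintillation.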

Zap-70 = target: T2, Zap-70 (Homo sapiens, UniProt P43403); assay: Kinase inhibition assay (33P transfer), Zap-70
T2 construct: Kinases are expressed as either kinase domains or full length constructs; made in house
T2 sequence (P43403 1-619): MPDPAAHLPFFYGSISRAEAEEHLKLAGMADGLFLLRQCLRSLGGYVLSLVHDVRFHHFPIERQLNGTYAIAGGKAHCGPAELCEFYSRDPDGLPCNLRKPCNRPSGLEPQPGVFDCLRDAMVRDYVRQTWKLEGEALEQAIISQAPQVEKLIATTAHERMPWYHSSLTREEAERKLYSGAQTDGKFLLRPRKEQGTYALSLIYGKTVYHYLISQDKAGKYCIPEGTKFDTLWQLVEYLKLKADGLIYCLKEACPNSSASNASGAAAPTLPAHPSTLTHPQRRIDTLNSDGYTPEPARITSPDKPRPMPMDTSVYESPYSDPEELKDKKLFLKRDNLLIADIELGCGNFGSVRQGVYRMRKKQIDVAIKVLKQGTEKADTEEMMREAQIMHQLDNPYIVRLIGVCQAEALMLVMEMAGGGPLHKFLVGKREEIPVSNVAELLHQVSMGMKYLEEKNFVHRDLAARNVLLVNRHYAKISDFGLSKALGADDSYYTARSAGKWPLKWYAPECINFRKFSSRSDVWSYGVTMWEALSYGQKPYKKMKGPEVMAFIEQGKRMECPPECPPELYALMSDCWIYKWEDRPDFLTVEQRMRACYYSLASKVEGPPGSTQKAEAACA
How it was run: as §1

Itk = target: T3, Itk (Homo sapiens, UniProt Q08881); assay: Kinase inhibition assay (33P transfer), Itk; details: read-out: Itk-1
T3 construct: Kinases are expressed as either kinase domains or full length constructs; made in house
T3 sequence (Q08881 1-620): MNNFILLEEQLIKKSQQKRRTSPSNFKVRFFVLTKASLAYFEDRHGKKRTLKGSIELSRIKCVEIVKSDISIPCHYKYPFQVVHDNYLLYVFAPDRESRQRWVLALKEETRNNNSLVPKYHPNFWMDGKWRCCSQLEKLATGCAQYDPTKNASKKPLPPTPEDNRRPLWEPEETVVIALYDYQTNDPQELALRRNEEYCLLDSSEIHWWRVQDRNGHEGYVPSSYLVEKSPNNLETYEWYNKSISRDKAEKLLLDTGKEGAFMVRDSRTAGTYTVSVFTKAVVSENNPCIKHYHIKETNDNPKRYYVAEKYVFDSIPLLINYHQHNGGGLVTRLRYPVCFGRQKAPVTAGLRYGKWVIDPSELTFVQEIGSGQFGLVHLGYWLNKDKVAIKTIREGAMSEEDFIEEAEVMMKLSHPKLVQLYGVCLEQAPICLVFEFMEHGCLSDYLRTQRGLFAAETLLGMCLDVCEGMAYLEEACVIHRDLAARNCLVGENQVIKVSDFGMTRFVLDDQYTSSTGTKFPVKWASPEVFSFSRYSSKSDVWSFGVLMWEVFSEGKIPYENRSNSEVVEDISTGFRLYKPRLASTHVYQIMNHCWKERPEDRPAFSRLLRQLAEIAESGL
How it was run: (§2)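 IC50: inhibitor concentration lowering 33P incorporation into immobilised substrate by 50%. Label transferred from ATP to poly(Glu,Tyr) 4:1 or poly(Arg,Ser) 3:1 is measured after a 0.5% phosphoric acid wash by liquid scintillation.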

EGFR = target: T4, EGFR (Homo sapiens, UniProt P00533); assay: Kinase inhibition assay (33P transfer), EGFR; details: read-out: EGFR-1
T4 construct: Kinases are expressed as either kinase domains or full length constructs; made in house
How it was run: as §2

Kdr = target: T5, Kdr (Homo sapiens, UniProt P35968); assay: Kinase inhibition assay (33P transfer), Kdr; details: read-out: KDR-1
T5 construct: Kinases are expressed as either kinase domains or full length constructs; made in house
How it was run: as §1

c-Met = target: T6, c-Met (Homo sapiens, UniProt P08581); assay: Kinase inhibition assay (33P transfer), c-Met; details: read-out: Met-1
T6 construct: Kinases are expressed as either kinase domains or full length constructs; made in house
How it was run: as §2

AKT = target: T7, AKT (Homo sapiens, UniProt Q9Y243); assay: Kinase inhibition assay (33P transfer), AKT
T7 construct: Kinases are expressed as either kinase domains or full length constructs; made in house
How it was run: as §1

IGFR-1 [1] = target: T8, IGFR-1 (Homo sapiens, UniProt P08069); assay: Kinase inhibition assay (33P transfer), IGFR-1; details: Table 2, class symbols A-E
T8 construct: Kinases are expressed as either kinase domains or full length constructs; made in house

ErbB2 = target: T9, ErbB2 (Homo sapiens, UniProt P04626); assay: Kinase inhibition assay (33P transfer), ErbB2; details: read-out: ErbB2-2
T9 construct: Kinases are expressed as either kinase domains or full length constructs; made in house
How it was run: as §2

Tek = target: T10, Tek (Homo sapiens, UniProt Q02763); assay: Kinase inhibition assay (33P transfer), Tek; details: read-out: Tek-1
T10 construct: Kinases are expressed as either kinase domains or full length constructs; made in house
How it was run: as §2

IGFR-1 [2] = target: T8, IGFR-1; assay: Kinase inhibition assay (33P transfer), IGFR-1; details: Table 2, kinase inhibition class
EPHB4 = target: T11, EPHB4 (Homo sapiens, UniProt P54760); assay: Kinase inhibition assay (33P transfer), EPHB4; details: read-out: EPHB4-1
T11 construct: Kinases are expressed as either kinase domains or full length constructs; made in house
T11 sequence (P54760 16-987): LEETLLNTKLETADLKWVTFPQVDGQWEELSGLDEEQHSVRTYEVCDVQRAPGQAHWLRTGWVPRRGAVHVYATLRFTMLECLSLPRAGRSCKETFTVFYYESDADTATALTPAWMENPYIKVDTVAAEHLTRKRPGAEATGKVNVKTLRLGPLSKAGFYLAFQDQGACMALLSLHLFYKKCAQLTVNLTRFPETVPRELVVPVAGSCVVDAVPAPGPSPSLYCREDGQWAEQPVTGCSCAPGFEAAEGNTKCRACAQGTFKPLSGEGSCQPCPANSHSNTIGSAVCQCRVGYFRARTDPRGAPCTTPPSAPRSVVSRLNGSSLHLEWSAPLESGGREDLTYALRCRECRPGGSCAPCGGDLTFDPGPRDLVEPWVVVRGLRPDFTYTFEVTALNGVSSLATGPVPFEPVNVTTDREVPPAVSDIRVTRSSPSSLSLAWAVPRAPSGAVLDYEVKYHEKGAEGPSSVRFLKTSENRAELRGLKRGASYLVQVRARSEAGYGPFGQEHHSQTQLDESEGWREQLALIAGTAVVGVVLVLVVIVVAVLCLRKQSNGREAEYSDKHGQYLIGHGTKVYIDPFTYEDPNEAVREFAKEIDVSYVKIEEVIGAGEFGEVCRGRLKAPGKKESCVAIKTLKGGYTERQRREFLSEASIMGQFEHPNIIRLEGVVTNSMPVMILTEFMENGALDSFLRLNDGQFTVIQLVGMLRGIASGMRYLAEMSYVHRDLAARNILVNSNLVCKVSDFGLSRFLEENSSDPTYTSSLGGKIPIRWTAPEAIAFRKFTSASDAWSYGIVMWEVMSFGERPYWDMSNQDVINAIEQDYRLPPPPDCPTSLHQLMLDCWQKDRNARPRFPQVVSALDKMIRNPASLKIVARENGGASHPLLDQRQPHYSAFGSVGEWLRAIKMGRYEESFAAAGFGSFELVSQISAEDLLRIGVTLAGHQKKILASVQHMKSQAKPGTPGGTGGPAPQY

ErbB4 = target: T12, ErbB4 (Homo sapiens, UniProt Q15303); assay: Kinase inhibition assay (33P transfer), ErbB4; details: read-out: ErbB4-1
T12 construct: Kinases are expressed as either kinase domains or full length constructs; made in house

[3] = Table 3, class symbols, read-out: Lck-1
[4] = Table 3, class symbols, read-out: Zap-1
[5] = Table 2, class symbols A-E, read-out: AKT3-1
[6] = Table 2, kinase inhibition class
[7] = Table 2, kinase inhibition class, read-out: AKT3-1

T8 sequence (P08069 31-1367): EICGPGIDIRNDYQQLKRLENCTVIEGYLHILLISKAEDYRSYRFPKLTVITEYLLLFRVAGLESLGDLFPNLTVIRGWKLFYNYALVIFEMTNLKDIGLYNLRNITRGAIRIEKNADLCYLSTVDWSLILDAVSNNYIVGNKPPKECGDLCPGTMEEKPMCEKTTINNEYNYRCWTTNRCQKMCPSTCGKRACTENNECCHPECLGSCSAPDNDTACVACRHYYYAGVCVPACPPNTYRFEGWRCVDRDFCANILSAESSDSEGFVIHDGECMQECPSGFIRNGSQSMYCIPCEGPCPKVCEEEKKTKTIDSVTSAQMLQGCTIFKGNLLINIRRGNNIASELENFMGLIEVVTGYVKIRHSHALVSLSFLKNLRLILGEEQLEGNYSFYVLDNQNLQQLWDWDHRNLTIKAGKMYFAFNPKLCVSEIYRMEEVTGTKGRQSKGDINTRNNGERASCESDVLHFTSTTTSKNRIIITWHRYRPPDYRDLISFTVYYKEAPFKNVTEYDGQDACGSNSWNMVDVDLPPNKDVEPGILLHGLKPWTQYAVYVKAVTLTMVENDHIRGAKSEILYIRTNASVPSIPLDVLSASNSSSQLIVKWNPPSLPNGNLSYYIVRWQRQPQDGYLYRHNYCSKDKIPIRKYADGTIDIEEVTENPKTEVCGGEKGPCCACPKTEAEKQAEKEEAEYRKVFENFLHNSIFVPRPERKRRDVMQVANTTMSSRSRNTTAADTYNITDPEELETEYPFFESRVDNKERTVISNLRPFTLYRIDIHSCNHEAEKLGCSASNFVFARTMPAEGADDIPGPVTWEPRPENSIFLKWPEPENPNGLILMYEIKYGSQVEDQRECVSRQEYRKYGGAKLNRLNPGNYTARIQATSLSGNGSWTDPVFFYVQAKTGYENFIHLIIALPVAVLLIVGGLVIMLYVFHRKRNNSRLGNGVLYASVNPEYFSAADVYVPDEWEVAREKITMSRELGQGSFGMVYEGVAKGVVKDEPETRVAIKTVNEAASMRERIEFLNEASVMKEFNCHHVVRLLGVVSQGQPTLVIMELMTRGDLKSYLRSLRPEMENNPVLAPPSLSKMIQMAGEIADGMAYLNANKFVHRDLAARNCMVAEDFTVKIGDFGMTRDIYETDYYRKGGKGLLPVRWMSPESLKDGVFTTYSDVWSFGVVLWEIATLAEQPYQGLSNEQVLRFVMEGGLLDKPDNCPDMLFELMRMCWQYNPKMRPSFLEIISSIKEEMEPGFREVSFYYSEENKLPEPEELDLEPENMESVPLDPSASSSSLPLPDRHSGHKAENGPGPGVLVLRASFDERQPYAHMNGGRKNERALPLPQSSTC
T7 sequence (Q9Y243 whole entry, the tested form may be a part): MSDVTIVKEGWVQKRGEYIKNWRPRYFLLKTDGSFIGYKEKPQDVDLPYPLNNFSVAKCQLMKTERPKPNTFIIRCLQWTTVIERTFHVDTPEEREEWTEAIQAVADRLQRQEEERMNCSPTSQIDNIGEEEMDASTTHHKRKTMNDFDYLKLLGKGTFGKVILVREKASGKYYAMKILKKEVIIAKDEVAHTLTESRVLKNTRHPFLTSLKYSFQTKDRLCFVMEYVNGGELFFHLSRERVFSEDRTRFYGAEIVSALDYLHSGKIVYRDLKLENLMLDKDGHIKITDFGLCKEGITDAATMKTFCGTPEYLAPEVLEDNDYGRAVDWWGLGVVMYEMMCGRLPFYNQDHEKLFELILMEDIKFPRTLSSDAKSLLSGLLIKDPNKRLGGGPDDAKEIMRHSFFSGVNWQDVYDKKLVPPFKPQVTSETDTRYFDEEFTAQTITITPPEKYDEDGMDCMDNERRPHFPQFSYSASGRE
T10 sequence (Q02763 23-1124, species assumed): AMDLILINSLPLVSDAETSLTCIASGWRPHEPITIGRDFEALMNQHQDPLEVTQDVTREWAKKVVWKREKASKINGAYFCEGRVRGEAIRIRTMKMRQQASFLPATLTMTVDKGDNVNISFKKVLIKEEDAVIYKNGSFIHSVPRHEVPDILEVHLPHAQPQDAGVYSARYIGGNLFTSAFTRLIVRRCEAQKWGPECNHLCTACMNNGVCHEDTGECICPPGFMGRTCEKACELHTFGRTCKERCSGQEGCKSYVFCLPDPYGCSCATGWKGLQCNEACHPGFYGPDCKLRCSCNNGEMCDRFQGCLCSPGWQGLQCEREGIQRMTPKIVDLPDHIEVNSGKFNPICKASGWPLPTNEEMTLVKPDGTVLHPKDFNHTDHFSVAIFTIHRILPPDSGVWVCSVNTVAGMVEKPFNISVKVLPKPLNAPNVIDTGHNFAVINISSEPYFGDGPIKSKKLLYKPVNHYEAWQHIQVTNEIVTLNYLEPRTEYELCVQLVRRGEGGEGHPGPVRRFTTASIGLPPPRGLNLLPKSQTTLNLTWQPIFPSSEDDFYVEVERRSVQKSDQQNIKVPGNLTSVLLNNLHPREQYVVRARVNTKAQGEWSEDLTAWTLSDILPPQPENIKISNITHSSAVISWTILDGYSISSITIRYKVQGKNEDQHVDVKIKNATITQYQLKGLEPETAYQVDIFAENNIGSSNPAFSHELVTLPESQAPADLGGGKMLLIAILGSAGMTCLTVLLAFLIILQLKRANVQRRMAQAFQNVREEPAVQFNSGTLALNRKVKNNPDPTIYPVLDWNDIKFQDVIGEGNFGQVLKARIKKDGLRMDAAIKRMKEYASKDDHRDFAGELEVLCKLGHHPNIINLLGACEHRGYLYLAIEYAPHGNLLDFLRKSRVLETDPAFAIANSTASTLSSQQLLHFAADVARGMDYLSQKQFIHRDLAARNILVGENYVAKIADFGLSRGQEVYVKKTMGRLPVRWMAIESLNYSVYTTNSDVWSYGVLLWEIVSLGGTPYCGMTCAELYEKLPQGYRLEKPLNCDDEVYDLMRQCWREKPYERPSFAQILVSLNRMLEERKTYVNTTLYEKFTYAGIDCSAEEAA
T12 sequence (Q15303 26-1308, species assumed): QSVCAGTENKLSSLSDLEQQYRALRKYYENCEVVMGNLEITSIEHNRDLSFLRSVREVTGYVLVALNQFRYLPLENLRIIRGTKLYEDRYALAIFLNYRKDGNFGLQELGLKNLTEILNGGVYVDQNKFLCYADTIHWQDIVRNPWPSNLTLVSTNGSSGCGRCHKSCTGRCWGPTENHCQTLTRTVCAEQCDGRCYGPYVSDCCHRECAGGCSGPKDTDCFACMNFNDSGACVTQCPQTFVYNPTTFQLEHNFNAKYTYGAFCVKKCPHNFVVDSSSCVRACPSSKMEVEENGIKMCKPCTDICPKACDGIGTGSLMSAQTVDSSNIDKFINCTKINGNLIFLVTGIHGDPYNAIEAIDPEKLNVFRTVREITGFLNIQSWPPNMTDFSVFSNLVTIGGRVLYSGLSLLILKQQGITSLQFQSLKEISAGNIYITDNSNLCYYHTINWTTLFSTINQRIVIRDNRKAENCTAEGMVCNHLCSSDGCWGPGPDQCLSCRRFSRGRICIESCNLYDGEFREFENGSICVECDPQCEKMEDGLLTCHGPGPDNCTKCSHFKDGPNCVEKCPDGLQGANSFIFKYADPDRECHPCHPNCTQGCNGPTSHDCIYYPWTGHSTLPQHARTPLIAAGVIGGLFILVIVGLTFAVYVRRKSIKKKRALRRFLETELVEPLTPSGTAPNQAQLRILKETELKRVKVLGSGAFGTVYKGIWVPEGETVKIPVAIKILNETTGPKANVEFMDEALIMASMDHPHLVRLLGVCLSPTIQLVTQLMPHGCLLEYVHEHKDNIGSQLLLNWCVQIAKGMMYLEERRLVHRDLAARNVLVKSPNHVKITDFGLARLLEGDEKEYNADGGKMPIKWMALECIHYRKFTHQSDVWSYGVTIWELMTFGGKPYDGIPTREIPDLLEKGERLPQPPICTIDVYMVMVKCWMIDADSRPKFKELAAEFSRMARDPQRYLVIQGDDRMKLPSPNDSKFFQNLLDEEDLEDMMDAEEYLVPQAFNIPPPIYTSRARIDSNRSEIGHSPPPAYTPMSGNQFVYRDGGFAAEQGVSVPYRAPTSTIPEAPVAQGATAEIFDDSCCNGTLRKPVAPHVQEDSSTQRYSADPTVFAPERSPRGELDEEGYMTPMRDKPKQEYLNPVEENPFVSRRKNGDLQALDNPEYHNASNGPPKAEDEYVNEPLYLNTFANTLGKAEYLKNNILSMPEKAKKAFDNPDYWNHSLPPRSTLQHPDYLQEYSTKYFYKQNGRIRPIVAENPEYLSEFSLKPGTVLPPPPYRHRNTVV
T1 sequence (P06239 whole entry, species assumed, the tested form may be a part): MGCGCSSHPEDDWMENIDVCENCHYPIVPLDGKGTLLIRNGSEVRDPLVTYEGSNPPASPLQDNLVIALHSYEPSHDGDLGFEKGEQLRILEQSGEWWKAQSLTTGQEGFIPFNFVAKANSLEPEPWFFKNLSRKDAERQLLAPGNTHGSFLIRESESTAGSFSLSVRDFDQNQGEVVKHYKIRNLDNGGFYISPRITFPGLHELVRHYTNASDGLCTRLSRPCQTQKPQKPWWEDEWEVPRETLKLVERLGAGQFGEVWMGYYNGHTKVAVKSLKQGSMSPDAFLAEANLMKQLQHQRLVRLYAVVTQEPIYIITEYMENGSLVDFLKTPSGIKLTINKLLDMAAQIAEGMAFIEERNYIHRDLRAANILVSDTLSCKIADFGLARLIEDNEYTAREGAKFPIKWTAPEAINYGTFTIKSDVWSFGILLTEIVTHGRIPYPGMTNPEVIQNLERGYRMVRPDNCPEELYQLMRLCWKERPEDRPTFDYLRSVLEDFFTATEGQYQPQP

| Compound | IC50 (Lck; [3]) | IC50 (Zap-70; [4]) | IC50 (Itk; Table 3, class symbols) | IC50 (EGFR; Table 2, class symbols A-E) | IC50 (Kdr; Table 3, class symbols) | IC50 (c-Met; Table 2, class symbols A-E) | IC50 (AKT; [5]) | IC50 (IGFR-1 [1]) | IC50 (Lck; Table 3, read-out: Lck-1) | IC50 (Zap-70; Table 3, read-out: Zap-1) | IC50 (Itk; Table 3) | IC50 (EGFR; [6]) | IC50 (Kdr; Table 3) | IC50 (Tek) | IC50 (c-Met; [6]) | IC50 (AKT; [7]) | IC50 (IGFR-1 [2]) | IC50 (EPHB4) | IC50 (ErbB4) | also measured |
| --- | --- | --- | --- | --- | --- | --- | --- | --- | --- | --- | --- | --- | --- | --- | --- | --- | --- | --- | --- | --- |
| COc1ccc(Nc2ncnc(N(C)c3ccccc3OC(F)(F)F)n2)cc1OC [Compound 867] | 0.949 to 5.7 µM | > 10.7 µM | > 10.7 µM | 0.949 to 5.7 µM | 8.31 to 10.7 µM | < 0.949 µM | 0.949 to 5.7 µM | > 10.7 µM |  |  |  |  |  |  |  |  |  |  |  |  |
| COc1cc(Nc2ncnc(-c3cccnc3Nc3ccccc3)n2)cc(OC)c1OC [Compound 1092] |  |  | > 10.5 µM | > 10.5 µM |  | > 10.5 µM |  | > 10.5 µM |  |  |  |  |  |  |  |  |  |  |  | IC50 (Lck; Lck-1, Table 3, class symbols): > 10.5 µM; IC50 (Zap-70): > 10.5 µM; IC50 (ErbB2): > 10.5 µM; IC50 (AKT; AKT3-1, Table 2, class symbols A-E): > 10.5 µM |
| CCOC(=O)Cc1ccc(Nc2ncnc(Nc3cc(OC)c(OC)c(OC)c3)n2)cc1 [Compound 62] |  |  |  |  |  |  |  |  | 0.91 to 5.46 µM | > 10.2 µM | > 10.2 µM | < 0.91 µM | 0.91 to 5.46 µM | > 10.2 µM | 7.96 to 10.2 µM | > 10.2 µM | 0.91 to 5.46 µM | > 10.2 µM | > 10.2 µM |  |
| COc1cc(Nc2ncnc(N(CCC(C)C)c3ccc(Cl)cc3)n2)cc(OC)c1OC [Compound 51] |  |  |  |  |  |  |  |  | 0.873 to 5.24 µM | > 9.83 µM | > 9.83 µM | < 0.873 µM | 0.873 to 5.24 µM | 0.873 to 5.24 µM | 0.873 to 5.24 µM | > 9.83 µM | > 9.83 µM | 0.873 to 5.24 µM | 5.24 to 7.64 µM |  |
| CC(C)Nc1ncccc1-c1ncnc(Nc2cccc(CO)c2)n1 [Compound 1114] | 1.19 to 7.13 µM | 10.4 to 13.4 µM | 10.4 to 13.4 µM | 10.4 to 13.4 µM | 1.19 to 7.13 µM | 10.4 to 13.4 µM | > 13.4 µM | > 13.4 µM |  |  |  |  |  |  |  |  |  |  |  |  |

Second part, led by results:

| IC50 (Lck; [3]) | IC50 (Zap-70; [4]) | IC50 (Itk; Table 3, class symbols) | IC50 (EGFR; Table 2, class symbols A-E) | IC50 (Kdr; Table 3, class symbols) | IC50 (c-Met; Table 2, class symbols A-E) | IC50 (AKT; [5]) | IC50 (IGFR-1 [1]) | IC50 (Lck; Table 3, read-out: Lck-1) | IC50 (Zap-70; Table 3, read-out: Zap-1) | IC50 (Itk; Table 3) | IC50 (EGFR; [6]) | IC50 (Kdr; Table 3) | IC50 (Tek) | IC50 (c-Met; [6]) | IC50 (AKT; [7]) | IC50 (IGFR-1 [2]) | IC50 (EPHB4) | IC50 (ErbB4) | Compound | also measured |
| --- | --- | --- | --- | --- | --- | --- | --- | --- | --- | --- | --- | --- | --- | --- | --- | --- | --- | --- | --- | --- |
|  |  |  |  |  |  |  |  | > 10.8 µM | > 10.8 µM | > 10.8 µM | < 0.963 µM | > 10.8 µM | > 10.8 µM | > 10.8 µM | 0.963 to 5.78 µM | > 10.8 µM | 5.78 to 8.42 µM | > 10.8 µM | COc1ccc(Nc2ncnc(Nc3ccc(OCc4ccccc4)cc3)n2)cc1O [Compound 171] |  |
|  |  |  |  |  |  |  |  | > 10.5 µM | 5.59 to 8.15 µM | > 10.5 µM | 0.931 to 5.59 µM | 0.931 to 5.59 µM | 5.59 to 8.15 µM | 8.15 to 10.5 µM | 8.15 to 10.5 µM | > 10.5 µM | 0.931 to 5.59 µM | > 10.5 µM | COc1ccc(Nc2ncnc(Nc3ccc(OCc4ccccc4)cc3)n2)cc1OC [Compound 157] |  |
| > 10.7 µM | > 10.7 µM | > 10.7 µM | > 10.7 µM | > 10.7 µM | > 10.7 µM | > 10.7 µM | > 10.7 µM |  |  |  |  |  |  |  |  |  |  |  | COc1ccc2[nH]cc(CCNc3ncnc(Nc4ccc(OC)c(OC)c4)n3)c2c1 [Compound 855] |  |
